The structures appear in SMILES notation.

human GOAT, sequence (Q96T53 whole entry): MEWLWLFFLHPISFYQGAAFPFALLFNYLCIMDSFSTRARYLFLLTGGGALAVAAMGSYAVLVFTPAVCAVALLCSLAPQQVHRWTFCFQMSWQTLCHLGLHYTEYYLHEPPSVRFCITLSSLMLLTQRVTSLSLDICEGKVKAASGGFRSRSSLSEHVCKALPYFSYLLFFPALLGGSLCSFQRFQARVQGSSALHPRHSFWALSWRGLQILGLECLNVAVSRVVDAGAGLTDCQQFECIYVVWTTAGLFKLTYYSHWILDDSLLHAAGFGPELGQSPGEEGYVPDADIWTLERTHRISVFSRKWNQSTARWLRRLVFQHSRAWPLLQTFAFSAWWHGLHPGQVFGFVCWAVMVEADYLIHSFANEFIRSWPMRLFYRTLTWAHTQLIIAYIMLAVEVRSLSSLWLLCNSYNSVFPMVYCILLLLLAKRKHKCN

The assay deals with human GOAT (Homo sapiens (Human), UniProt Q96T53). Kind of assay: Determination of hGOAT Activity in HEK293 Cells after Incubation with Test Compound. To be noted: HEK293 cells stably transfected with preproghrelin and human GOAT; octanoate-BSA 100 μM; acyl-ghrelin in medium by ELISA after 5 hours. In kind it is cell-based. The procedure:
Determination of hGOAT Activity in HEK293 Cells after Incubation with Test Compound
HEK293 cells stably transfected with two expression vectors, one coding for preproghrelin cDNA and a second for the expression of human GOATcDNA are used as a cellular model. After feeding the cells with octanoic acid for 5 hours, acyl-ghrelin is measured in cell culture medium by an ELISA procedure.
Cellline: Hek293 hGOAT/PPGhrl Clone #1B8Sodium octanoate, Sigma, Cat.-No. C5038
BD Poly-D-Lysin 384-well Plates, black-clear polystyrene BD Bioscience Cat.-No. […] ELISA human acylated Ghrelin Kit purchased from Bertin Pharman (detailed composition of buffers e.g. wash-puffer, ELISA buffer not known)
Cells are plated with a density of 5000 cells/well in 384-well poly-D-lysin plates and incubated for 1 day at 37° C., 5% CO2 in DMEM medium, 10% FCS, 1×NEAA, Puromycin (0.5 μg/ml) and G418 (1 mg/ml). Then the medium is changed to a identical medium without FCS and containing Octanoate-BSA (final concentration 100 μM each) and compound in DMSO (final DMSO concentration 0.3%). After incubation for 5 hours acylghrelin in the medium is measured by ELISA
The medium sample is diluted 1:25 in Elisa buffer, A 25 ul aliquot is transferred to a 384-well ELISA plate previously washed 4 times with 100 μL wash buffer, and 25 μl tracer-solution is added. After incubation overnight (˜20 h) at 4° C. temperature the plate is washed 4 times with 100 μl wash-buffer per well. Finally 50 μl Ellman's reagent is added to each well and the plate is incubated in the dark for 20 minutes. The absorbance is measured at 405 nm in an Envision multilabel reader and the amount of acylated ghrelin is calculated according to a acylated ghrelin standard curve provided in the same plate.
The analysis of the data is performed by calculation of the percentage of acyl-ghrelin produced in the presence of test compound compared to the amount of acyl-ghrelin produced in the vehicle control samples. An inhibitor of the GOAT enzyme will give values between 100% CTL (no inhibition) and 0% CTL (complete inhibition). IC50 values are calculated with Assay Explorer or other suited software based on curve fitting of results of 8 different compound concentrations.
(In general: ELISA stands for enzyme-linked immunosorbent assay.)
One may read the IC50 as the point on the concentration scale where inhibition reaches its midpoint. In turn, `Cc1nc2nonc2c(N)c1Cc1ccc(-c2cncs2)c(N)n1` [Example 67, 6-(6-Amino-5-thiazol-5-yl-pyridin-2-ylmethyl)-5-methyl-[1,2,5]oxadiazolo[3,4-b]pyridin-7-ylamine] registered an IC50 of 0.05 nM.
With `Cc1cnn(C)c1-c1ccc(Cc2c(C)nc3nonc3c2N)nc1N` [Example 68, 6-[6-Amino-5-(2,4-dimethyl-2H-pyrazol-3-yl)-pyridin-2-ylmethyl]-5-methyl-[1,2,5]oxadiazolo[3,4-b]pyridin-7-ylamine] the figure was 0.11 nM; with `Cc1nc2nonc2c(N)c1Cc1ccc(-c2cnccn2)c(N)n1` [Example 69, 6-(6-Amino-5-pyrazin-2-yl-pyridin-2-ylmethyl)-5-methyl-[1,2,5]oxadiazolo[3,4-b]pyridin-7-ylamine], 0.58 nM; with `Cc1nc2nonc2c(N)c1Cc1ccc(OC(F)F)c(C#N)n1` [Example 70, 6-(7-Amino-5-methyl-[1,2,5]oxadiazolo[3,4-b]pyridin-6-ylmethyl)-3-difluoromethoxy-pyridine-2-carbonitrile], 0.082 nM.
Next, `Cc1nc2nonc2c(N)c1Cc1ccc(Br)c(C#N)n1` [Example 71, 6-(7-Amino-5-methyl-[1,2,5]oxadiazolo[3,4-b]pyridin-6-ylmethyl)-3-bromopyridine-2-carbonitrile]: 0.22 nM; `Cc1nc2nonc2c(N)c1Cc1ccc(C#N)c(F)n1` [Example 72, 6-(7-Amino-5-methyl-[1,2,5]oxadiazolo[3,4-b]pyridin-6-ylmethyl)-2-fluoro-nicotinonitrile]: 1.1 nM.
Regarding `Cc1nc2nonc2c(N)c1Cc1ccc(C#N)c(OC(F)F)n1` [Example 73, 6-(7-Amino-5-methyl-[1,2,5]oxadiazolo[3,4-b]pyridin-6-ylmethyl)-2-difluoromethoxy-nicotinonitrile], inhibition was half-maximal at 0.33 nM (IC50).
Next, `Cc1nc2nonc2c(N)c1Cc1cc(C(F)(F)F)c(C#N)cn1` [Example 74, 6-(7-Amino-5-methyl-[1,2,5]oxadiazolo[3,4-b]pyridin-6-ylmethyl)-4-trifluoromethyl-nicotinonitrile]: 2 nM; `Cc1nc2nonc2c(N)c1Cc1ncc(C(F)(F)F)c(C#N)n1` [Example 75, 2-(7-amino-5-methyl-[1,2,5]oxadiazolo[3,4-b]pyridin-6-ylmethyl)-5-(trifluoromethyl)pyrimidine-4-carbonitrile]: 2.7 nM.
With `Cc1nc2nonc2c(N)c1Cc1cc(C#N)c(C#N)cn1` [Example 76, 6-(7-amino-5-methyl-[1,2,5]oxadiazolo[3,4-b]pyridin-6-ylmethyl)pyridine-3,4-dicarbonitrile] the figure was 14 nM; with `Cc1nc2nonc2c(N)c1Cc1ncc(C#N)cn1` [Example 77, 2-(7-amino-5-methyl-[1,2,5]oxadiazolo[3,4-b]pyridin-6-ylmethyl)pyrimidine-5-carbonitrile], 3.8 nM; with `Cc1nc2nonc2c(N)c1Cc1ncc(C#N)c(C(F)(F)F)n1` [Example 78, 2-(7-amino-5-methyl-[1,2,5]oxadiazolo[3,4-b]pyridin-6-ylmethyl)-4-(trifluoromethyl)pyrimidine-5-carbonitril], 0.36 nM.
Next, `Cc1nc2nonc2c(N)c1Cc1ncc(C#N)c(C(F)F)n1` [Example 79, 2-(7-amino-5-methyl-[1,2,5]oxadiazolo[3,4-b]pyridin-6-ylmethyl)-4-(difluoromethyl)pyrimidine-5-carbonitrile]: 0.59 nM.
As to `Cc1nc2nonc2c(N)c1Cc1ncc(C#N)c(C2CCOC2)n1` (centres unmarked) [Example 80, 2-(7-amino-5-methyl-[1,2,5]oxadiazolo[3,4-b]pyridin-6-ylmethyl)-4-(oxolan-3-yl)pyrimidine-5-carbonitrile], the IC50 was 3.8 nM.
With `Cc1nc(Cc2c(C)nc3nonc3c2N)ncc1C#N` [Example 81, 2-(7-amino-5-methyl-[1,2,5]oxadiazolo[3,4-b]pyridin-6-ylmethyl)-4-methylpyrimidine-5-carbonitrile] the figure was 7 nM; with `Cc1nc2nonc2c(N)c1Cc1ncc(C#N)c(C(C)(F)F)n1` [Example 82, 2-(7-amino-5-methyl-[1,2,5]oxadiazolo[3,4-b]pyridin-6-ylmethyl)-4-(1,1-difluoroethyl)pyrimidine-5-carbonitrile], 1 nM; with `Cc1nc2nonc2c(N)c1Cc1ncc(Br)c(C(F)(F)F)n1` [Example 83, 6-[5-bromo-4-(trifluoromethyl)pyrimidin-2-yl]methyl-5-methyl-[1,2,5]oxadiazolo[3,4-b]pyridin-7-amine], 0.077 nM.
`Cc1nc2nonc2c(N)c1Cc1ncc(Br)c(C(F)F)n1` [Example 84, 6-[5-bromo-4-(difluoromethyl)pyrimidin-2-yl]methyl-5-methyl-[1,2,5]oxadiazolo[3,4-b]pyridin-7-amine]: inhibition was half-maximal at 0.21 nM (IC50).
With `Cc1nc2nonc2c(N)c1Cc1cccc([S+](C)[O-])n1` (centres unmarked) [Example 85, 6-(6-Methanesulfinyl-pyridin-2-ylmethyl)-5-methyl-[1,2,5]oxadiazolo[3,4-b]pyridin-7-ylamine] the figure was 6.9 nM; with `Cc1nc2nonc2c(N)c1Cc1cccc(S(C)(=O)=O)n1` [Example 86, 6-(6-Methanesulfonyl-pyridin-2-ylmethyl)-5-methyl-[1,2,5]oxadiazolo[3,4-b]pyridin-7-ylamine], 19 nM; with `Cc1nc2nonc2c(N)c1Cc1ccc([S+](C)[O-])cn1` (centres unmarked) [Example 87, 6-(5-Methanesulfinyl-pyridin-2-ylmethyl)-5-methyl-[1,2,5]oxadiazolo[3,4-b]pyridin-7-ylamine], 9 nM.
`Cc1nc2nonc2c(N)c1Cc1ccc(S(C)(=O)=O)cn1` [Example 88, 6-(5-Methanesulfonyl-pyridin-2-ylmethyl)-5-methyl-[1,2,5]oxadiazolo[3,4-b]pyridin-7-ylamine] registered an IC50 of 3.3 nM.
Next, `Cc1nc2nonc2c(N)c1Cc1ccc(C(F)(F)F)c(C(N)=O)n1` [Example 89, 6-(7-Amino-5-methyl-[1,2,5]oxadiazolo[3,4-b]pyridin-6-ylmethyl)-3-trifluoromethyl-pyridine-2-carboxylic Acid Amide]: 0.43 nM; `Cc1nc2nonc2c(N)c1Cc1ccc(OC(F)F)c(C(N)=O)n1` [Example 90, 6-(7-Amino-5-methyl-[1,2,5]oxadiazolo[3,4-b]pyridin-6-ylmethyl)-3-difluoromethoxy-pyridine-2-carboxylic Acid Amide]: 0.54 nM.
For `Cc1nc2nonc2c(N)c1Cc1ccc(Br)c(OCC2(C)COC2)n1` [Example 95, 6-[5-Bromo-6-(3-methyl-oxetan-3-ylmethoxy)-pyridin-2-ylmethyl]-5-methyl-[1,2,5]oxadiazolo[3,4-b]pyridin-7-ylamine], the midpoint of inhibition, the IC50, lay at 0.082 nM.
For `COc1nc(Cc2c(C)nc3nonc3c2N)ccc1Br` [Example 97, 6-(5-Bromo-6-methoxy-pyridin-2-ylmethyl)-5-methyl-[1,2,5]oxadiazolo[3,4-b]pyridin-7-ylamine], the IC50 is 0.022 nM.
Regarding `Cc1nc2nonc2c(N)c1Cc1ccc(Br)c(OC2COC2)n1` [Example 98, 6-[5-Bromo-6-(oxetan-3-yloxy)-pyridin-2-ylmethyl]-5-methyl-[1,2,5]oxadiazolo[3,4-b]pyridin-7-ylamine], the IC50 came to 1.9 nM.
`Cc1nc2nonc2c(N)c1Cc1ccc(Br)c(OCC(C)(F)F)n1` [Example 99, 6-[5-Bromo-6-(2,2-difluoro-propoxy)-pyridin-2-ylmethyl]-5-methyl-[1,2,5]oxadiazolo[3,4-b]pyridin-7-ylamine] displayed an IC50 of 0.072 nM. This IC50 lies about 26-fold lower than the previous one.
With `Cc1nc2nonc2c(N)c1Cc1ccc(Br)c(OCCF)n1` [Example 100, 6-[5-Bromo-6-(2-fluoro-ethoxy)-pyridin-2-ylmethyl]-5-methyl-[1,2,5]oxadiazolo[3,4-b]pyridin-7-ylamine] the figure was 0.034 nM.
Next, `Cc1nc2nonc2c(N)c1Cc1ccc(Br)c(OCCCF)n1` [Example 101, 6-[5-Bromo-6-(3-fluoro-propoxy)-pyridin-2-ylmethyl]-5-methyl-[1,2,5]oxadiazolo[3,4-b]pyridin-7-ylamine]: 0.074 nM.
With `CSc1nc(Cc2c(C)nc3nonc3c2N)ccc1Br` [Example 102, 6-(5-Bromo-6-methylsulfanyl-pyridin-2-ylmethyl)-5-methyl-[1,2,5]oxadiazolo[3,4-b]pyridin-7-ylamine] the figure was 0.074 nM; with `Cc1nc2nonc2c(N)c1Cc1ccc(C#N)c(OCC(C)(F)F)n1` [Example 103, 6-(7-Amino-5-methyl-[1,2,5]oxadiazolo[3,4-b]pyridin-6-ylmethyl)-2-(2,2-difluoro-propoxy)-nicotinonitrile], 0.086 nM.

(Values after patent US10308667B2, “Oxadiazolopyridine derivatives for use as ghrelin O-acyl transferase (GOAT) inhibitors” (Boehringer Ingelheim International GmbH, priority 2016, dated 2019).)
